Experimental data reported in patent US20210122757A1, “SPIROCYCLIC COMPOUNDS AS MODULATORS OF INDOLEAMINE 2,3-DIOXYGENASE” (PHENEX DISCOVERY VERWALTUNGS-GMBH, priority 2018, published 2021).

What follows are compounds tested against T1, Indoleamine 2,3-dioxygenase (Homo sapiens, UniProt P14902) (assay: SKOV-3 Cellular Indoleamine 2,3-dioxygenase Assay). Details: SKOV-3 cells, 50 ng/ml Interferon gamma, 100 μM L-Tryptophan, 24 hours, N-Formylkynurenin fluorescence detection; read-out: cell based activity (IC50).
T1 construct: endogenous in cells; host or cells: SKOV-3 (ATCC HTB-77), stimulated with 50 ng/ml interferon gamma
T1 sequence (P14902 whole entry): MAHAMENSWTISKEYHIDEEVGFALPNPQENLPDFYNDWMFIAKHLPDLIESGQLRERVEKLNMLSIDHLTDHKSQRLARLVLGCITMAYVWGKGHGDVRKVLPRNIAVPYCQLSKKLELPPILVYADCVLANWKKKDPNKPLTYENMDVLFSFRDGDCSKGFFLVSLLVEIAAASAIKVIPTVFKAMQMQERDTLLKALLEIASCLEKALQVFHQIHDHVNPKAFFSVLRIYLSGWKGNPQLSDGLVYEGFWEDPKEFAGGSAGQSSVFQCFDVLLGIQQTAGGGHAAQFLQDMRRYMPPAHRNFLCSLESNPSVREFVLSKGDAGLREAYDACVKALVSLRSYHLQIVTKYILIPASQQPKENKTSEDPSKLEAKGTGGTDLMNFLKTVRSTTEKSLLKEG
Description: SKOV-3 Cellular Indoleamine 2,3-dioxygenase Assay
SKOV-3 cells were obtained from the American Type Culture Collection (ATCC® HTB-77™) and maintained in McCoy's medium (Pan Biotech) supplemented with 10% fetal bovine serum and 1% Penicillin/Streptomycin. Cells were kept at 37° C. in a humidified incubator with 5% CO2. For assay preparation, cells were seeded at a density of 2*10^5/ml into black clear bottom 96 well plates in 100 μl medium/well supplemented with 50 ng/ml Interferon gamma (eBioscience, Thermo Fisher Scientific). After cells fully adhered to the plate, dilution series of compounds were added in medium containing additional L-Tryptophan to a final L-Tryptophan concentration of 100 μM. The cells were incubated for 24 hours. Detection of produced N-Formylkynurenin was performed by addition of 3-Methylpiperidine to a final concentration of 200 mM. The plates were sealed and heated to 65° C. for 20 minutes in a water bath. After cooling the fluorescence of each well was recorded with a Victor™X4 (PerkinElmer) plate reader at an emission wavelength of 535 nm and excitation at 405 nm (Tomek et al.; Anal Bioanal Chem (2013) 405:2515-2524, Tomek et al.; Biochim Biophys Acta. 2015 September; 1850(9):1772-80).

IC50 | Compound
≥ 50 nM | O=C(C[C@H]1CC[C@@]2(CCc3ccccc32)CC1)Nc1ccc(Cl)cc1 (single isomer, unassigned) [Example 1b, N-(4-chlorophenyl)-2-(2′,3′-dihydrospiro[cyclohexane-1,1′-inden]-4-yl)acetamide]
< 50 nM | O=C(C[C@H]1CC[C@@]2(CCc3ccccc32)CC1)Nc1ccc(Cl)cc1 (single isomer, unassigned) [Example 1c, N-(4-chlorophenyl)-2-(2′,3′-dihydrospiro[cyclohexane-1,1′-inden]-4-yl)acetamide]
< 50 nM | CC(C(=O)Nc1ccc(Cl)cc1)[C@H]1CC[C@@]2(CCc3ccccc32)CC1 (single isomer, unassigned) [Example 2a, N-(4-chlorophenyl)-2-(2′,3′-dihydrospiro[cyclohexane-1,1′-inden]-4-yl)propanamide]
< 50 nM | CC(C(=O)Nc1ccc(Cl)cc1)[C@H]1CC[C@@]2(CCc3ccccc32)CC1 (single isomer, unassigned) [Example 2b, N-(4-chlorophenyl)-2-(2′,3′-dihydrospiro[cyclohexane-1,1′-inden]-4-yl)propanamide]
≥ 50 nM | CC(C(=O)Nc1ccc(Cl)cc1)C1CCC2(CC1)COc1ncc(C(F)(F)F)cc12 (single isomer, unassigned) [Example 4b, N-(4-chlorophenyl)-2-(5′-(trifluoromethyl)-2′H-spiro[cyclohexane-1,3′-furo[2,3-b]pyridin]-4-yl)propanamide]
≥ 50 nM | CC(C(=O)Nc1ccc(Cl)cc1)C1CCC2(CC1)COc1ncc(C(F)(F)F)cc12 (single isomer, unassigned) [Example 4c, N-(4-chlorophenyl)-2-(5′-(trifluoromethyl)-2′H-spiro[cyclohexane-1,3′-furo[2,3-b]pyridin]-4-yl)propanamide]
≥ 50 nM | CC(C(=O)Nc1ccc(Cl)cc1)C1CCC2(CC1)COc1ncc(C(F)(F)F)cc12 (single isomer, unassigned) [Example 4d, N-(4-chlorophenyl)-2-(5′-(trifluoromethyl)-2′H-spiro[cyclohexane-1,3′-furo[2,3-b]pyridin]-4-yl)propanamide]
< 50 nM | CC(C(=O)Nc1ccc(Cl)cc1)C1CCC2(CC1)COc1ncc(C(F)(F)F)cc12 (single isomer, unassigned) [Example 4e, N-(4-chlorophenyl)-2-(5′-(trifluoromethyl)-2′H-spiro[cyclohexane-1,3′-furo[2,3-b]pyridin]-4-yl)propanamide]
< 50 nM | CC(C(=O)Nc1ccc(Cl)cc1)C1CCC2(CC1)COc1nc(C(F)(F)F)ccc12 (single isomer, unassigned) [Example 5b, N-(4-chlorophenyl)-2-(6′-(trifluoromethyl)-2′H-spiro[cyclohexane-1,3′-furo[2,3-b]pyridin]-4-yl)propanamide]
< 50 nM | CC(C(=O)Nc1ccc(Cl)cc1)C1CCC2(CC1)COc1nc(C(F)(F)F)ccc12 (single isomer, unassigned) [Example 5c, N-(4-chlorophenyl)-2-(6′-(trifluoromethyl)-2′H-spiro[cyclohexane-1,3′-furo[2,3-b]pyridin]-4-yl)propanamide]
≥ 50 nM | CC(C(=O)Nc1ccc(Cl)cc1)C1CCC2(CC1)COc1nc(C(F)(F)F)ccc12 (single isomer, unassigned) [Example 5d, N-(4-chlorophenyl)-2-(6′-(trifluoromethyl)-2′H-spiro[cyclohexane-1,3′-furo[2,3-b]pyridin]-4-yl)propanamide]
< 50 nM | CC(C(=O)Nc1ccc(Cl)cc1)C1CCC2(CC1)COc1nc(C(F)(F)F)ccc12 (single isomer, unassigned) [Example 5e, N-(4-chlorophenyl)-2-(6′-(trifluoromethyl)-2′H-spiro[cyclohexane-1,3′-furo[2,3-b]pyridin]-4-yl)propanamide]
≥ 50 nM | CC(C(=O)Nc1ccc(Cl)cc1)C1CCC2(CC1)c1ccc(C(F)(F)F)cc1C(=O)N2C (single isomer, unassigned) [Example 6b, N-(4-Chlorophenyl)-2-(2′-methyl-3′-oxo-5′-(trifluoromethyl)spiro[cyclohexane-1,1′-isoindolin]-4-yl)propanamide]
< 50 nM | CC(C(=O)Nc1ccc(Cl)cc1)C1CCC2(CC1)c1ccc(C(F)(F)F)cc1C(=O)N2C (single isomer, unassigned) [Example 6c, N-(4-Chlorophenyl)-2-(2′-methyl-3′-oxo-5′-(trifluoromethyl)spiro[cyclohexane-1,1′-isoindolin]-4-yl)propanamide]
≥ 50 nM | CC(C(=O)Nc1ccc(Cl)cc1)C1CCC2(CC1)c1ccc(C(F)(F)F)cc1C(=O)N2C (single isomer, unassigned) [Example 6d, N-(4-Chlorophenyl)-2-(2′-methyl-3′-oxo-5′-(trifluoromethyl)spiro[cyclohexane-1,1′-isoindolin]-4-yl)propanamide]
≥ 50 nM | CC(C(=O)Nc1ccc(Cl)cc1)C1CCC2(CC1)c1ccc(C(F)(F)F)cc1C(=O)N2C (single isomer, unassigned) [Example 6e, N-(4-Chlorophenyl)-2-(2′-methyl-3′-oxo-5′-(trifluoromethyl)spiro[cyclohexane-1,1′-isoindolin]-4-yl)propanamide]
< 50 nM | CC(C(=O)Nc1ccc(Cl)cc1F)C1CCC2(CC1)COc1cc(C(F)(F)F)ccc12 (single isomer, unassigned) [Example 7b, N-(4-Chloro-2-fluorophenyl)-2-(6-(trifluoromethyl)-2H-spiro[benzofuran-3,1′-cyclohexan]-4′-yl)propanamide]
< 50 nM | CC(C(=O)Nc1ccc(Cl)cc1F)C1CCC2(CC1)COc1cc(C(F)(F)F)ccc12 (single isomer, unassigned) [Example 7c, N-(4-Chloro-2-fluorophenyl)-2-(6-(trifluoromethyl)-2H-spiro[benzofuran-3,1′-cyclohexan]-4′-yl)propanamide]
< 50 nM | CC(C(=O)Nc1ccc(Cl)cc1F)C1CCC2(CC1)COc1cc(C(F)(F)F)ccc12 (single isomer, unassigned) [Example 7d, N-(4-Chloro-2-fluorophenyl)-2-(6-(trifluoromethyl)-2H-spiro[benzofuran-3,1′-cyclohexan]-4′-yl)propanamide]
≥ 50 nM | CC(C(=O)Nc1ccc(Cl)cc1F)C1CCC2(CC1)COc1cc(C(F)(F)F)ccc12 (single isomer, unassigned) [Example 7e, N-(4-Chloro-2-fluorophenyl)-2-(6-(trifluoromethyl)-2H-spiro[benzofuran-3,1′-cyclohexan]-4′-yl)propanamide]
< 50 nM | Cc1ccc(NC(=O)C(C)C2CCC3(CC2)COc2cc(C(F)(F)F)ccc23)cc1 (single isomer, unassigned) [Example 8b, N-(p-Tolyl)-2-(6-(trifluoromethyl)-2H-spiro[benzofuran-3,1′-cyclohexan]-4′-yl)propanamide]
< 50 nM | Cc1ccc(NC(=O)C(C)C2CCC3(CC2)COc2cc(C(F)(F)F)ccc23)cc1 (single isomer, unassigned) [Example 8c, N-(p-Tolyl)-2-(6-(trifluoromethyl)-2H-spiro[benzofuran-3,1′-cyclohexan]-4′-yl)propanamide]
< 50 nM | Cc1ccc(NC(=O)C(C)C2CCC3(CC2)COc2cc(C(F)(F)F)ccc23)cc1 (single isomer, unassigned) [Example 8d, N-(p-Tolyl)-2-(6-(trifluoromethyl)-2H-spiro[benzofuran-3,1′-cyclohexan]-4′-yl)propanamide]
≥ 50 nM | Cc1ccc(NC(=O)C(C)C2CCC3(CC2)COc2cc(C(F)(F)F)ccc23)cc1 (single isomer, unassigned) [Example 8e, N-(p-Tolyl)-2-(6-(trifluoromethyl)-2H-spiro[benzofuran-3,1′-cyclohexan]-4′-yl)propanamide]
≥ 50 nM | CC1CCC(NC(=O)C(C)C2CCC3(CC2)COc2cc(C(F)(F)F)ccc23)CC1 (single isomer, unassigned) [Example 9b, N-((1r,4r)-4-Methylcyclohexyl)-2-(6-(trifluoromethyl)-2H-spiro[benzofuran-3,1′-cyclohexan]-4′-yl)propanamide]
≥ 50 nM | CC1CCC(NC(=O)C(C)C2CCC3(CC2)COc2cc(C(F)(F)F)ccc23)CC1 (single isomer, unassigned) [Example 9c, N-((1r,4r)-4-Methylcyclohexyl)-2-(6-(trifluoromethyl)-2H-spiro[benzofuran-3,1′-cyclohexan]-4′-yl)propanamide]
≥ 50 nM | CC1CCC(NC(=O)C(C)C2CCC3(CC2)COc2cc(C(F)(F)F)ccc23)CC1 (single isomer, unassigned) [Example 9d, N-((1r,4r)-4-Methylcyclohexyl)-2-(6-(trifluoromethyl)-2H-spiro[benzofuran-3,1′-cyclohexan]-4′-yl)propanamide]
< 50 nM | CC1CCC(NC(=O)C(C)C2CCC3(CC2)COc2cc(C(F)(F)F)ccc23)CC1 (single isomer, unassigned) [Example 9e, N-((1r,4r)-4-Methylcyclohexyl)-2-(6-(trifluoromethyl)-2H-spiro[benzofuran-3,1′-cyclohexan]-4′-yl)propanamide]
